Test results published in the supplement of paper PMC10307832.

Tests used:
Assay in all cases: relative viability (nuclei count vs DMSO), 5 days (fraction); higher = more cells survive
Neratinib + Trametinib = compound: CCOc1cc2ncc(C#N)c(Nc3ccc(OCc4ccccn4)c(Cl)c3)c2cc1NC(=O)/C=C/CN(C)C [Neratinib] + CC(=O)Nc1cccc(-n2c(=O)n(C3CC3)c(=O)c3c(Nc4ccc(I)cc4F)n(C)c(=O)c(C)c32)c1 [Trametinib] (partner 0.02 µM)
Summary of the method: (§1)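 Lung cancer cell lines were seeded in 1536-well plates and dosed by pin tool the next day, with either a single drug or a fixed anchor-drug dose combined with five library-drug doses (not always all listed) spaced in √10 steps. Five days later, one step fixed the cells and stained their nuclei (final 0.05% Triton X-100, 1% formaldehyde, 1 ug/ml Hoechst), and nuclei were counted on 4× images. Relative viability is the nuclei count in treated wells divided by the count in vehicle wells, and each value is the median of duplicate plates.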

Neratinib + Bortezomib = compound: CCOc1cc2ncc(C#N)c(Nc3ccc(OCc4ccccn4)c(Cl)c3)c2cc1NC(=O)/C=C/CN(C)C [Neratinib] + CC(C)C[C@H](NC(=O)[C@H](Cc1ccccc1)NC(=O)c1cnccn1)B(O)O [Bortezomib] (partner 0.002 µM)
Summary of the method: as §1

Neratinib + Pictilisib = compound: CCOc1cc2ncc(C#N)c(Nc3ccc(OCc4ccccn4)c(Cl)c3)c2cc1NC(=O)/C=C/CN(C)C [Neratinib] + CS(=O)(=O)N1CCN(Cc2cc3nc(-c4cccc5[nH]ncc45)nc(N4CCOCC4)c3s2)CC1 [Pictilisib] (partner 1 µM)
Summary of the method: as §1

Neratinib + Olaparib = compound: CCOc1cc2ncc(C#N)c(Nc3ccc(OCc4ccccn4)c(Cl)c3)c2cc1NC(=O)/C=C/CN(C)C [Neratinib] + O=C(c1cc(Cc2n[nH]c(=O)c3ccccc23)ccc1F)N1CCN(C(=O)C2CC2)CC1 [Olaparib] (partner 8 µM)
Summary of the method: as §1

Cell Line | relative viability (Neratinib + Trametinib; first compound 0.01 µM) | relative viability (Neratinib + Trametinib; first compound 0.03162 µM) | relative viability (Neratinib + Trametinib; first compound 0.3162 µM) | relative viability (Neratinib + Trametinib; first compound 1 µM) | relative viability (Neratinib + Bortezomib; first compound 0.01 µM) | relative viability (Neratinib + Bortezomib; first compound 0.03162 µM) | relative viability (Neratinib + Bortezomib; first compound 0.1 µM) | relative viability (Neratinib + Bortezomib; first compound 0.3162 µM) | relative viability (Neratinib + Bortezomib; first compound 1 µM) | relative viability (Neratinib + Pictilisib; first compound 0.01 µM) | relative viability (Neratinib + Pictilisib; first compound 0.03162 µM) | relative viability (Neratinib + Pictilisib; first compound 0.1 µM) | relative viability (Neratinib + Pictilisib; first compound 0.3162 µM) | relative viability (Neratinib + Pictilisib; first compound 1 µM) | relative viability (Neratinib + Olaparib; first compound 0.01 µM) | relative viability (Neratinib + Olaparib; first compound 0.03162 µM) | relative viability (Neratinib + Olaparib; first compound 0.1 µM) | relative viability (Neratinib + Olaparib; first compound 0.3162 µM) | relative viability (Neratinib + Olaparib; first compound 1 µM) | relative viability (Neratinib + Trametinib; first compound 0.1 µM)
NCI-H2405 | 0.682 | 0.612 | 0.465 | 0.513 | 1.05 | 1.09 | 0.708 | 0.998 | 0.954 | 0.522 | 0.547 | 0.515 | 0.399 | 0.29 | 0.892 | 0.93 | 0.85 | 0.908 | 0.619 | –
NCI-H3122 | 0.29 | 0.214 | 0.227 | 0.175 | 1.05 | 1.1 | 0.98 | 1.06 | 0.775 | 0.634 | 0.589 | 0.474 | 0.619 | 0.214 | 0.609 | 0.699 | 0.571 | 0.617 | 0.587 | 0.2
PC-3 [JPC-3] | 0.745 | 0.831 | 0.427 | 0.435 | 0.834 | 0.844 | 0.82 | 0.802 | 0.365 | 0.81 | 0.739 | 0.616 | 0.536 | 0.473 | – | 1.29 | 0.964 | 0.81 | 0.424 | 0.629
PC-14 | 0.717 | 0.832 | 0.096 | 0.0456 | 0.88 | 0.86 | 0.741 | 0.918 | 0.158 | 0.927 | 0.805 | 0.66 | 0.121 | 0.101 | 0.188 | 0.344 | 0.37 | 0.233 | 0.102 | 0.573
